# Data published in patent US12419952B2, “Saponin conjugate and vaccine or pharmaceutical composition comprising the same” (priority 2019, dated 2025).
# Assays:
# [1] = tested on: memory T cells (low CD62L, high CD44); test: Flow cytometric analysis of memory T cells (CD62L low, CD44 high) in splenocytes of vaccinated mice; assay type: in vivo, C57BL/6 mice; details: one week post-third dose
# Protocol: C57BL/6 mice were obtained from NLAC Taiwan. Mice between 4 and 8 weeks of age were vaccinated with 100 μL via the subcutaneous (SC) route and one dose per week for three weeks. Mice was sacrificed one week after the third vaccination, serum and splenocytes were harvested.
# Spleen tissue was isolated from mice and processed into single cell suspensions using PP micro centrifuge sample pestle. Splenocytes were seeding on 6 well plate at 2×10^7/2 mL, cultivation for 2 h in a CO2 incubator. After 2 h, stimulate with or without E7-peptide for 2 hours at 37° C., then treat cell with protein transport inhibitor Monensin (Invitrogen, Cat. no. 00-4505-51) and Brefeldin (Invitrogen, Cat. no. 00-4506-51) for 4 hours at 37° C. Afterward, cells were harvest then washed twice with PBS and then stained for surface CD3 (BioLegend, Cat. no. 100222), CD4 (BioLegend, Cat. no. 100540), CD8 (Invitrogen, Cat. no. 11-0081-86), CD44 (BioLegend, Cat. no. 103008), CD62L (BioLegend, Cat. no. 104412) for 30 minutes at 4° C. After washing, cells were fixed for 30 minutes at room temperature using IC fixation buffer (Invitrogen, Cat. no. 00-8222-49), then cells were washed in permeabilization buffer (Invitrogen, Cat. no. 00-8333-56) and stained with IFNγ antibody (Invitrogen, Cat. no. 48-7311-82), IL-2 antibody (Invitrogen, Cat. no. 25-7021-82) and TNFα antibody (Invitrogen, Cat. no. 48-7321-82). One point five million cells events were acquired on the Backman Coulter Gallions. Flow data were analyzed using Kaluza software (ver. 1.2). Populations were first gated on viable mononuclear cell using forward and side scatter, then gated on CD3^+/CD4^+ or CD3^+/CD8^+ T cells. Next, sub-gated CD62L^−/CD44^+ memory T cells. Subsequently, sub-gated on either CD4^+/IFNγ, CD8^+/IFNγ^+, CD4^+/IL-2^+, CD8^+/IL-2^+, CD4/TNFα^+ and CD8^+/TNFα^+ double-positive cells.
# Two adhesion molecules associated with differentiating naive and activated/memory T cells are CD62L (L-selectin) and CD44 (H-CAM). […] Flow-cytometric analysis (individual mice) of T-cells as frequency of viable CD8^+ or CD4^+ splenocytes expressing IFN-γ, TNF-α, or IL-2. Cytokine positivity was determined.
# [2] = tested on: SARS-CoV-2 spike protein; test: ELISA of serum SARS-CoV-2-specific IgG after vaccination with spike protein and adjuvant; assay type: in vivo, C57BL/6 mice
# [3] = tested on: PR8 virus; test: Influenza challenge: NP peptide vaccine with compound 56, then live PR8 virus infection; assay type: in vivo, C57BL/6 mice; details: NPI/II plus compound 56 (50 μg s.c. or 30 μg i.n.); two vaccinations; 110 PFU PR8
# Protocol: Female C57BL/6 mice 6-8 weeks of age were immunized through either s.c. injection with 100p of vaccines or the intranasal route with 30 μl of vaccines. All vaccine liquids were freshly prepared and diluted with 0.5% Tween 20 PBS. Vaccines used for the subcutaneous injection contained immunogens NP366-374/NP311-325 peptides, alone or combined with compound 56 ([…]). Vaccines used for the i.n. route contained immunogens alone or with compound 56 (30 μg). After two times vaccination, mice were infected with 110 plaque-forming units (PFU) of live PR8 virus by intronasal.
# A mouse-vaccination model was applied with an antigen […] to evaluate anti-influenza efficacy. Five mice per group were immunized two times with compound 56 and NPI/II. After two times vaccination, mice were infected with 110 plaque-forming units (PFU) of live PR8 virus by intronasal.
# [4] = tested on: PEK antigen (PE-E7-K3)-specific cytokine-secreting splenocytes; test: ELISpot of IFNγ and IL-2 production by splenocytes of mice vaccinated with PEK antigen plus saponin adjuvant; assay type: in vivo, C57BL/6 mice; details: 50 μg saponin + PEK 100 μg, s.c.; splenocytes one week after third dose
# [5] = tested on: Female BALB/c mice; test: Acute toxicity with increased dose of saponin (survival, weight change, spleen and hepato somatic index); assay type: in vivo
# Source text: FIG. 8 (A) The percentage of median weight change of mice in 5 days. The values are presented as means±S.E.M. (n=5). (B) Hepato somatic index and (C) Spleen somatic index. The values are presented as means±S.E.M. (n=5). The percentage of median weight change of mice which was received increased dose of saponin adjuvant 56 was all less than 5%. The spleen somatic index and hepato somatic index in all experimental group were no change with compare to control group.
# Acute toxicity was examined with increased dose of saponin 56 form 100 μg to 1000 μg. The result was presented as the number of surviving animal per group of 5 mice (Female BALB/c mice, 9 weeks) in 7 days. […] (FIG. 8)
# The results represent in FIG. 8. […] The spleen somatic index and hepato somatic index in all experimental group were no change with compare to control group.
# [6] = tested on: E.G7-OVA (OVA-expressing EL4 lymphoma) tumors; test: Tumor challenge: OVA vaccine with adjuvant in E.G7-OVA tumor bearing mice; assay type: in vivo, C57BL/6 mice; details: Days 7, 14; for tumor growth suppression compared with the control group (PBS): 100 μg OVA with or without 50 μg adjuvant
# Protocol: Female C57BL/6 mice 6-8 weeks of age obtained from NLAC Taiwan. Mice were injected s.c. with 200 μL of 1.5*10^6 E. G7-OVA (OVA-expressing EL4 lymphoma) cells in PBS. Tumor volumes were measured at regular intervals using a caliper and calculated by the following formula: tumor volume (mm^3)=(long diameter)*(short diameter)^2*0.52. When the average tumor volume reached […] (day 7), 100 μL of 100 μg OVA in PBS with or without 50 μg compound 56, alum, Qs-21 and GPI0100 was injected s.c. around the tumor. PBS (200 μL) was used as a control.
# A mouse-vaccination model was applied with an antigen OVA to evaluate anti-tumor efficacy. […] The evaluation of compound 56, and positive control groups (alum, Qs-21 and GPI-0100) anti-tumor efficacy were analyzed by caliper.
Compound,cytokine positive CD4+ T-cells [1],frequency of CD8+ T-cells positive for IFN-γ or TNF-α as compared to mice vaccinated with GPI-0100 [1],inducing IL-2 (ELISpot) [4],secretion of cytokines IFNγ (ELISpot) compared with GPI0100 [4],tumor growth suppression compared with the control group (PBS) [6],further results
"CC1O[C@@H](OC(=O)[C@]23CCC(C)(C)CC2C2=CCC4C5(C)CC[C@H](O[C@@H]6OC(C(=O)NCCCCCCCCc7ccc(Oc8ccccc8)cc7)[C@@H](O)C(O)C6O)C(C)(C=O)C5CCC4(C)C2(C)CC3O)C(O[C@@H]2OC(C)[C@H](O[C@@H]3OC[C@@H](O)C(O)C3O)C(O)C2O)C(O)[C@H]1O (stereo partly drawn) [Compound 56, 3-O—(N-(8-(4-Phenoxyhenyl)octyl)-β-D-glucopyranosyluronamide)-28-O-(β-D-xylopyranosyl-(1→4)-α-L-rhamnopyranosyl-(1→2)-β-D-fucopyranosyl) quillaic ester]",no cytokine positive CD4^+ T-cells were detected,higher frequency,moderate,three to four times more,significant tumor growth suppression effect,"increase of antibody titer ([2]; SARS-CoV-2 (2 μg) + Compound 56 (50 μg) vs SARS-CoV-2 (10 μg) + Alum (10 μg), only 20% of antigen): 1000 fold; level of SARS-CoV-2-specific IgG antibody production ([2]; SARS-CoV-2 (2 μg) + Compound 56 (50 μg), s.c.): highest level of antibody production; survival rate following PR8 infection compared to NP I/II peptides alone [3]: higher survival rate; abnormality on activity and diet behavior ([5]; 100 μg to 1000 μg, 7 days): no obvious abnormality; survival in acute toxicity test ([5]; 100 μg to 1000 μg, 7 days): all of the mice were survive; number of surviving animal per group of 5 mice ([5]; Dose 100 μg, 7 days): 5/5; number of surviving animal per group of 5 mice ([5]; Dose 200 μg, 7 days): 5/5; number of surviving animal per group of 5 mice ([5]; Dose 500 μg, 7 days): 5/5; number of surviving animal per group of 5 mice ([5]; Dose 1000 μg, 7 days): 5/5; hepato somatic index compared to control group ([5]; all experimental groups, n=5): no change; spleen somatic index compared to control group ([5]; all experimental groups, n=5): no change; percentage of median weight change of mice ([5]; increased dose of saponin adjuvant, 5 days, n=5): less than 5%; survival rate of tumor bearing mice ([6]; 100 μg OVA + 50 μg adjuvant): highest survival rate"
"CC1O[C@@H](OC(=O)[C@]23CCC(C)(C)CC2C2=CCC4C5(C)CC[C@H](O[C@@H]6OC(C(=O)NCCCCCCCCc7ccc(N8CCOCC8)cc7)[C@@H](O)C(O)C6O)C(C)(C=O)C5CCC4(C)[C@]2(C)CC3O)C(O[C@@H]2OC(C)[C@H](O[C@@H]3OC[C@@H](O)C(O)C3O)C(O)C2O)C(O)[C@H]1O (stereo partly drawn) [Compound 62, 3-O—(N-(8-(4-morpholinophen-1-yl)octyl)-β-D-glucopyranosyluronamide)-28-O-(β-D-xylopyranosyl-(1→4)-α-L-rhamnopyranosyl-(1-2)-β-D-fucopyranosyl) quillaic ester]",no cytokine positive CD4^+ T-cells were detected,higher frequency,–,–,–,–
"CC1O[C@@H](OC(=O)[C@]23CCC(C)(C)CC2C2=CCC4C5(C)CC[C@H](O[C@@H]6OC(C(=O)NCCCCCCCCc7ccc(Oc8ccccc8)cc7)[C@@H](O)C(O)C6O)C(C)(C=O)C5CCC4(C)[C@]2(C)CC3O)C(O[C@@H]2OC(C)[C@H](O[C@@H]3OC[C@@H](O)C(O)C3O)C(O[C@@H]3OC(CO)[C@@H](O)C(O)C3O)C2O)C(O)[C@H]1O (stereo partly drawn) [Compound 79, 3-O—(N-(8-(4-Phenoxyhenyl)octyl)-β-D-glucopyranosyluronamide)-28-O-(β-D-glucopyranosyl-(1→3)-(β-D-xylopyranosyl-(1-4))-α-L-rhamnopyranosyl-(1→2)-β-D-fucopyranosyl) quillaic ester]",no cytokine positive CD4^+ T-cells were detected,higher frequency,moderate,three to four times more,–,–
Alum [reference compound],–,–,–,–,slight tumor growth suppression at first,–
OVA: antigen OVA used in the tumor vaccination model,–,–,–,–,slight tumor growth suppression at first,–
Qs-21 [reference compound],–,–,–,–,significant tumor growth suppression effect,–
